In patent US20230348401A1, “Inhibitors of Glucose-6-phosphate Dehydrogenase and Uses Thereof” (The Trustees of Princeton University, priority 2020, published 2023):

Assays:
[1] = test system: bone marrow derived macrophages; test: Intracellular cytokines in bone marrow-derived macrophages; format: cell-based, mouse
Experimental: Mouse bone marrow monocyte/macrophage progenitors were isolated from femur and tibia and cultured in BMM media (DMEM supplemented with 10% FBS, 20% L929-conditioned media, 100 U/ml penicillin, and 100 µg/ml streptomycin). Expression of CD11b and F4/80 was checked by flow cytometry after 6 days in culture. Mature macrophages were either maintained in BMM media (M0 macrophages) or stimulated overnight with LPS (100 ng/mL) + IFNγ (20 ng/mL) for M1 activation or IL-4 (20 ng/mL) for M2 activation.
To analyze intracellular cytokines, active T cells were re-stimulated with PMA (20 ng/ml) and ionomycin (1 µg/ml) in the presence of GolgiStop and increasing concentrations of G6PDi-1. After a 6-hour incubation period, cells were collected, washed with PBS and stained with the viability dye Live/Dead Aqua. Cells were then washed with staining buffer and stained for surface markers: CD4 (APC-Cy7, clone RM4-5,), CD8a (PerCP-Cy5.5, clone 53-6.7). Cells were then fixed and permeabilized and stained for intracellular cytokines: IFN-γ (FITC, clone XMG1.2), TNFα (PE-Cyanine7, clone MP6-XT22) and IL-2 (PE, clone JES6-5H4). To analyze intracellular cytokines, mature macrophages were stimulated with LPS (100 ng/mL) + IFNγ (20 ng/mL) in the presence of GolgiStop and increasing concentrations of G6PDi-1. […]

active CD8+ T cells = test: Absolute oxPPP flux by 14CO2 emission; format: cell-based, mouse; details: 10 uM
Experimental: Glucose oxidation flux through oxPPP was determined from difference in the rate of ^14CO2 released from [1-^14C]-glucose and [6-^14C]-glucose, as previously described with some modification. RPMI 1640 media without sodium bicarbonate was supplemented with 0.74 g/L of NaHCO3, 2.5 mM HEPES pH 7.4, 10% dFBS, and 1% of either 1-^14C-glucose or 6-^14C-glucose. Three million primary mouse naïve (rested in IL-7) or active CD8+ T cells (in the presence of IL2 and 0.1% DMSO or 10 uM G6PDi-1) were incubated for 4 hours in a sealed 12.5 cm^2 flask. To facilitate the collection of ^14CO2, 100 µL of a 10 M KOH solution was introduced into the sealed flask using a center well for incubation flask (8823200000, DWK Life Sciences). The assay was stopped by injection of 1 mL 1 M HCL, and the KOH solution then transferred to scintillation vials containing 10 mL scintillation solution for counting. The signal was corrected for the percentage of radioactive tracer in the medium. OxPPP flux is calculated as follows: […]

G6PD = G6PD (Homo sapiens, UniProt P11413); test: G6PD enzymatic activity by LC-MS (6-pg production); format: biochemical; design: Partially truncated human G6PD (residues 28-515, Uniprot ID P11413); His6 with thrombin cleavage site (N, cleaved yes); made in house; host or cells: Escherichia coli BL21(DE3)pLysS; details: orthogonal LC-MS assay
G6PD, sequence (P11413 28-515): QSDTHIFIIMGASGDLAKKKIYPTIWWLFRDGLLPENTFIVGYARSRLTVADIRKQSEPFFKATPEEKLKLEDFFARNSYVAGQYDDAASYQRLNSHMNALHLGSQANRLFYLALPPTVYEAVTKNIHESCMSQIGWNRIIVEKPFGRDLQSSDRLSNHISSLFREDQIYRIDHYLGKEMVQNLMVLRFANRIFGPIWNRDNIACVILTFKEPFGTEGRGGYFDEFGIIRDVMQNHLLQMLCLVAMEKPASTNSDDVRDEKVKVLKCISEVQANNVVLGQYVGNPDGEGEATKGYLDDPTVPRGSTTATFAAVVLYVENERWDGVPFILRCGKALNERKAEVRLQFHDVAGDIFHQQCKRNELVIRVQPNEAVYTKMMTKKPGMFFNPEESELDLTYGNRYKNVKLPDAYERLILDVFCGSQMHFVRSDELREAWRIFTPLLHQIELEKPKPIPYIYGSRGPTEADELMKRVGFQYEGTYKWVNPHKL
Experimental: Aliquots of reaction mixture were collected at indicated time points and rapidly quenched by diluting (1:5) into methanol precooled on dry ice. The mixtures were centrifuged at 13,000 rcf for 20 minutes at 4° C., and the resulting supernatants were diluted (1:20) into 40:40:20 methanol/ acetonitrile/ water and analyzed by LC-MS.

[2] = test system: active CD8+ or CD4+ cells; test: Intracellular cytokines in active T cells after PMA and ionomycin; format: cell-based, mouse
Experimental: To analyze intracellular cytokines, active T cells were re-stimulated with PMA (20 ng/ml) and ionomycin (1 µg/ml) in the presence of GolgiStop and increasing concentrations of G6PDi-1. After a 6-hour incubation period, cells were collected, washed with PBS and stained with the viability dye Live/Dead Aqua. Cells were then washed with staining buffer and stained for surface markers: CD4 (APC-Cy7, clone RM4-5,), CD8a (PerCP-Cy5.5, clone 53-6.7). Cells were then fixed and permeabilized and stained for intracellular cytokines: IFN-γ (FITC, clone XMG1.2), TNFα (PE-Cyanine7, clone MP6-XT22) and IL-2 (PE, clone JES6-5H4). To analyze intracellular cytokines, mature macrophages were stimulated with LPS (100 ng/mL) + IFNγ (20 ng/mL) in the presence of GolgiStop and increasing concentrations of G6PDi-1. After a 6-hour incubation period, cells were collected, washed with PBS and stained with the viability dye Live/Dead Aqua. Cells were then fixed and permeabilized and stained for intracellular cytokines: TNFα (PE-Cyanine7, clone MP6-XT22) and IL-10 (V450, clone JES5-16E3).

## N#Cc1cc(Nc2ncc3c(n2)CCCCC3=O)cs1 [Compound 2, 4-([5-oxo-6H,7H,8H,9H-cyclohepta[d]pyrimidin-2-yl]amino)thiophene-2-carbonitrile]
[1]; classically activated macrophages (MΦ-1)
  macrophage cytokine production: minimally affecting
[1]; macrophages
  NADPH, LPS-induced pro-inflammatory cytokine production, iNOS upregulation: did not decrease
Active CD8+ T cells
  absolute oxPPP flux: blocked
G6PD
  6-pg production by recombinant human G6PD: demonstrated in vitro inhibition of G6PD activity
[2]; CD8+ and CD4+ T cells, PMA and ionomycin, 6 h
  cytokine production: blocked cytokine production
[2]; active CD8+ T cells
  IFNγ mRNA: decreased
